Measured values from PMC11219735, “Fluorescence lifetime multiplexing with fluorogen activating protein FAST variants” (Communications Biology, 2024).

Experiments:
Assay in all cases: spectrofluorometric titration of purified protein
Assay type in all cases: binding
[1] = biological target: T1, FAST-R52K (Fluorescence-Activating and Absorption-Shifting Tag) (Halorhodospira halophila, UniProt P16113, R52K/C69G/Y94W/T95M/F96I/D97P/Y98T/Q99S/M100R)
T1 construct: gene pyp

[2] = biological target: T2, FAST-P68K (Fluorescence-Activating and Absorption-Shifting Tag) (Halorhodospira halophila, UniProt P16113, P68K/C69G/Y94W/T95M/F96I/D97P/Y98T/Q99S/M100R)
T2 construct: gene pyp

[3] = biological target: T3, FAST-P68T (Fluorescence-Activating and Absorption-Shifting Tag) (Halorhodospira halophila, UniProt P16113, P68T/C69G/Y94W/T95M/F96I/D97P/Y98T/Q99S/M100R)
T3 construct: gene pyp

[4] = biological target: T4, FAST-F62L (Fluorescence-Activating and Absorption-Shifting Tag) (Halorhodospira halophila, UniProt P16113, F62L/C69G/Y94W/T95M/F96I/D97P/Y98T/Q99S/M100R)
T4 construct: gene pyp
T4 sequence (P16113 whole entry F62L/C69G/Y94W/T95M/F96I/D97P/Y98T/Q99S/M100R): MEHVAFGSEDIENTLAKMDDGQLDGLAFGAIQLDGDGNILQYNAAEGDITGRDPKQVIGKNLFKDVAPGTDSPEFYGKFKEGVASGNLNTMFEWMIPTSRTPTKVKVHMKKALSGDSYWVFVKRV

T2 sequence (P16113 whole entry P68K/C69G/Y94W/T95M/F96I/D97P/Y98T/Q99S/M100R): as the sequence (P16113 whole entry F62L/C69G/Y94W/T95M/F96I/D97P/Y98T/Q99S/M100R) above, with L62F, P68K counted along it
T1 sequence (P16113 whole entry R52K/C69G/Y94W/T95M/F96I/D97P/Y98T/Q99S/M100R): as the sequence (P16113 whole entry F62L/C69G/Y94W/T95M/F96I/D97P/Y98T/Q99S/M100R) above, with R52K, L62F counted along it
T3 sequence (P16113 whole entry P68T/C69G/Y94W/T95M/F96I/D97P/Y98T/Q99S/M100R): as the sequence (P16113 whole entry F62L/C69G/Y94W/T95M/F96I/D97P/Y98T/Q99S/M100R) above, with L62F, P68T counted along it

SMILES	Kd [1]	Kd [2]	Kd [3]	Kd [4]
Cc1cc(/C=C2\SC(=S)NC2=O)c(C)cc1O [HBR-2,5-DM]	46 nM	84 nM	90 nM	
COc1cc(/C=C2\N=C(C(F)(F)F)N(C)C2=O)c(OC)cc1O [25DOM-HBI-2T, (Z)-5-(4-hydroxy-2,5-dimethoxybenzylidene)-3-methyl-2-(trifluoromethyl)-3,5-dihydro-4H-imidazol-4-one]	440 nM	340 nM		
COc1cc(/C=C2\SC(=S)NC2=O)c(OC)cc1O [HBR-DOM2, (Z)-5-(4-hydroxy-2,5-dimethoxybenzylidene)-2-thioxothiazolidin-4-ones]	35 nM	30 nM		36 nM
